Data on 14 molecules can be found in patent US20030082135A1, “Pathway of RANTES-mediated chemokine synthesis in astrocytes and methods of use therefor” (priority 2001, published 2003).

The test system of assay [1] is MEK, ERK1/2, p90RSK, p38, SAPK/JNK phosphorylation in astrocytes. As to the kind of experiment: Western blotting of phosphorylated MAP kinase pathway proteins in astrocyte lysates. The format is cell-based, mouse. The method, then: SDS-PAGE and Western blotting. Astrocytes were treated for the indicated time with media or 100 ng/ml RANTES, eotaxin, or other materials as indicated. Cells (3×10^5 in Examples 1-3, or 2×10^4 in later Examples) were resuspended in 100 μl buffer (50 mM HEPES, pH 7.5, 150 mM NaCl, 2 mM EDTA, 2 mM EGTA, 1% Triton X-100, 50 mM Sodium fluoride, 5 mM Sodium pyrophosphate, 50 mM Sodium β-glycerophosphate, 1 mM Sodium Ortho-vanadate, 1 mM DTT, 1 mM PMSF, 10 μg/ml Leupeptin, and 10 μg/ml Aprotinin). Protein concentration of the whole cell extract was determined by BCA protein assay kit (Pierce, Rockford, Ill.). Samples (10 μg) were loaded and separated on a 10% SDS-polyacrylamide gel. After transfer to Hybond ECL nitrocellulose membrane (Amersham Pharmacia Biotech Inc, Piscataway, N.J.) or Zeta-probe blotting membranes (Bio-Rad, Richmond Calif.) blots were blocked overnight with 5% BSA at 4° C., and probed with the antibody indicated. Antibody against unphosphorylated or phosphorylated erk (Cell Signaling, Beverly, Mass.) was used at 1 μg/ml. Appropriate anti-immunoglobulin reagents were used to develop the blots by enhanced chemiluminescence (Amersham Pharmacia Biotech Inc, Piscataway, N.J.).
Little is known about the signaling mechanisms involved in astrocyte respones to chemokines. To examine components of the RANTES signal transduction pathway, phosphorylation of the MAP kinase kinase (MEK) and mitogen activated protein (MAP) kinases was examined. To minimize basal kinase activity, astrocytes were starved of serum for at least 3 h before treatment with chemokine. Whole cell lysates were separated by SDS-PAGE and examined by Western blot. Antibodies that specifically react with phosphorylated MEK or phosphorylated extracellular signal-related kinase (ERK) were used to detect the active kinases.
On the technique in general: In western blotting, separated proteins are transferred to a membrane and probed.

Assay [2] relates to primary neonatal mouse astrocyte cultures. In words: RNase protection assay (RPA) for chemokine/cytokine transcripts in astrocyte cultures. Format: cell-based. The following applies: for expression of transcripts for MIP-1α: PKA inhibitors alone, 3 h; for expression of TNF-α, RANTES, KC, MIP-1α, MIP-2, and MCP-1 transcripts: BALB/cJ neonatal astrocytes, chemokine for 6 h. On the procedure: Astrocyte isolation and culture. […] RNA isolation and RNase protection assay (RPA). […] RNase protection assays (RPA) for chemokine message were conducted with multi-probe templates according to the manufacture's protocol (RiboQuant assay kit, BD-PharMingen, San Diego, Calif.). Gels were scanned and radioactive bands quantitated using a phosphoimager (Molecular Dynamics, Sunnyvale, Calif.). Levels of uniformly expressed housekeeping genes large ribosomal subunit protein 32-3A (L32) or glyceraldehyde-3-phosphate dehydrogenase (GAPDH), were used for normalization. The value of each chemokine receptor band divided by the value of the indicated housekeeping gene band in the same sample yielded the relative intensity. Normalized receptor expression represents the ratio of the relative intensity following treatment with chemokine versus the relative intensity of medium alone. Treatment with pharmacological inhibitors. Astrocytes were washed and resuspended in serum-and insulin-free complete medium and starved overnight. Cells were treated at 37° C. for 1 h with 100 ng/ml Pertussis toxin (PTx) before addition of RANTES or IL-1. […] The cells were harvested after a 3 h incubation with RANTES; RNA was prepared and assayed by RPA.

In another assay the test system is murine KC promoter. As to the kind of experiment: KC promoter luciferase reporter in transfected astrocytes. Format: cell-based, mouse. The following applies: U0126 indicated amounts or 5 μM SB203580 plus 100 ng/ml RANTES, 24 h. An excerpt:
Plasmids, transient transfection, and luciferase activity assay. The KC reporter plasmid was constructed by using a luciferase reporter gene pGL-3 basic vector (Promega, Madison, Wis.) driven by mouse KC promoter (−2878/+43). Wild-type p90RSK expression (WT pKH3) and dominant negative p90RSK expression (ΔΔ RSK pKH3) plasmids were obtained from Dr. John Blenis, Harvard Medical School. Astrocytes were transiently transfected with Lipofectamine 2000 reagent (Life Technologies, Gaithersburg, Md.) according to the manufacturer's protocol. After 24 h, the cells were stimulated with RANTES in absence or presence of the indicated inhibitor, and luciferase activity was determined after an additional 24 h, by the procedure according to the manufacturer (Promega, Madison, Wis.). Relative luciferase activity was normalized for cell lysate protein concentration as determined by BCA protein assay kit (Pierce, Rockford, Ill.). The Relative Fold Induction is the relative intensity of the experimental sample divided by the relative intensity of the medium control.
To establish whether RANTES up-regulation of chemokine production is mediated by activation of promoter elements, primary astrocyte cultures were transiently transfected with a murine KC promoter-luciferase construct, and reporter activity was monitored after RANTES treatment.
(In general: A reporter such as luciferase makes a cellular process visible.)

Another assay deals with PKA. As to the kind of experiment: PKA activity assay on lysates of treated astrocytes. The format is cell-based, mouse. The settings on record: 1 μM forskolin, 500 μM db-cAMP or 500 μM 8-bromo-cAMP, 1 h. On the procedure: PKA activity assay. PKA activity was determined using a commercially available kit (Calbiochem, San Diego, Calif.) according to manufacturer's recommendations. Primary mouse astrocytes were grown in 6-well plates and then stimulated as described and lysed in 100 μl buffer (same buffer used for Western blotting) for 30 min. Five μl of the lysates were incubated with 20 μl PKA reaction mixture at 30° C. for 30 min. The reaction was terminated by adding 10 μl stop solution and ^32P radioactivity was counted.

The subject of assay [3] is intracellular cAMP in astrocytes. In words: Intracellular cAMP in astrocytes (EIA). The format is cell-based, mouse. The following applies: 1 μM forskolin, 1 h. On the procedure:
FIG. 8 is a set of bar graphs showing that RANTES reduced intracellular cAMP accumulation in astrocytes. Panel A. Astrocytes were treated with the indicated doses of RANTES or TCA4 for 5 min. Intracellular cAMP was detected as described in Materials and Methods. Values represent the mean±S.E.M of triplicate experiments. Panel B. Kinetics of intracellular cAMP levels. Astrocytes were treated with 100 ng/ml RANTES for indicated times. Panel C. RANTES inhibited forskolin-induced intracellular cAMP accumulation. Astrocytes were pretreated with 1 μM forskolin for 1 h then stimulated with the indicated amount of RANTES for 5 min. Intracellular cAMP was determined by EIA. Values are presented as relative cAMP level and represent the mean±S.E.M. of triplicate experiments.
To further elucidate the RANTES-mediated signaling pathway in astrocytes, intracellular cAMP levels were evaluated following chemokine stimulation. Primary mouse astrocytes were incubated with the indicated dose of RANTES or the negative control chemokine, TCA4 for 5 min and monitored for cAMP levels. RANTES (100 ng/ml) decreased intracellular cAMP levels by 68% in a dose dependent fashion (FIG. 8A).

The test system of assay [4] is CXCR4, CX3CR1, CCR1, CCR5 transcripts in astrocytes. In words: RPA for chemokine receptor transcripts in astrocytes. The format is cell-based, mouse. On the procedure: RNA isolation and RNase protection assay (RPA). RNA was prepared as in Luo, Y., et al. 1999. J Immunol 163:3985. RNase protection assays (RPA) for chemokine message were conducted with multi-probe templates according to the manufacture's protocol (RiboQuant assay kit, BD-PharMingen, San Diego, Calif.). Gels were scanned and radioactive bands quantitated using a phosphoimager (Molecular Dynamics, Sunnyvale, Calif.). Levels of uniformly expressed housekeeping genes large ribosomal subunit protein 32-3A (L32) or glyceraldehyde-3-phosphate dehydrogenase (GAPDH), were used for normalization. The value of each chemokine receptor band divided by the value of the indicated housekeeping gene band in the same sample yielded the relative intensity. Normalized receptor expression represents the ratio of the relative intensity following treatment with chemokine versus the relative intensity of medium alone.
Treatment with the RANTES-related chemokines RANTES or eotaxin, or with TNF-α also found to down-regulate expression of CX3CR1 transcripts. In addition, CXCR4 mRNA levels were decreased, while the levels of CCR1 transcripts were elevated. In contrast, little or no regulation of CCR5 was noted. The pooled results of 3-4 experiments indicate eotaxin caused an average 60% decrease in CXCR4 (P less than 0.01) and a 70% decrease in CX3CR1 mRNA (P less than 0.02) (FIG. 8.B). The effects of RANTES stimulation were similar with an average 70 and 90% reduction in CXCR4 and CX3CR1 transcripts, respectively (P less than 0.01).

Where no end group is shown, it is not given here.

As for `CN(C)CCCn1cc(C2=C(c3c[nH]c4ccccc34)C(=O)NC2=O)c2ccccc21` [GF109203, reference compound], the MEK phosphorylation entry in assay [1] (protein kinase C inhibitor control, 20 min) is listed as “failed to stimulate”.
`O=c1c(-c2ccc(O)cc2)coc2cc(O)cc(O)c12` [Genistein, genistein, reference compound]: the “effect on RANTES-induced chemokine message” value in assay [2] (U0126 50 μM, genistein 100 μM, wortmannin 1 μM, added 30 min prior to chemokine, 3 h RANTES) is reported as “block chemokine message”.
Take `O=S(=O)(NCCNC/C=C/c1ccc(Br)cc1)c1cccc2cnccc12` [H-89, reference compound]: in assay [2], the “expression of transcripts for MIP-1α” value is listed as “induced”. The “MEK, erk1/2 and RSK phosphorylation” value in assay [1] (indicated doses, 20 min, no RANTES) is “induced”.
On to `Nc1ncnc2c1nc(Br)n2C1OC2COP(O)(=S)OC2C1O` (stereo not shown) [Rp-8-bromo-cAMP, reference compound], for which the “expression of transcripts for MIP-1α” value in assay [2] is reported as “induced”.
As for `C[S+]([O-])c1ccc(-c2nc(-c3ccncc3)c(-c3ccc(F)cc3)[nH]2)cc1` (stereo not shown) [SB203580, reference compound], the “effect on RANTES-mediated transcription of chemokine RNA” value in assay [2] is recorded as “failed to modulate”. Moreover, the “effect on erk1/2 and RSK phosphorylation induced by H-89” value in assay [1] (10-50 μM U0126 or 5 μM SB203580, 10 μM H-89 for 20 min) is “fail to block”. For the same molecule, in the assay on murine KC promoter, the “effect on RANTES-induced KC reporter activity” value is on record as “did not inhibit”.
`CCCC(=O)Nc1ncnc2c1ncn2[C@@H]1O[C@@H]2COP(=O)(O)O[C@H]2[C@H]1OC(=O)CCC` [db-cAMP, dibutyryl cAMP, reference compound]: the “effect of cAMP analogue alone on transcription” value in assay [2] (500 μM, no RANTES) is “Neither cAMP analogue alone had any effect”. Further, in assay [2] (500 μM, peaking at 2 h), the “effects on KC and MIP-2 transcription” value was “weak and transient”. Moreover, the “effect on astrocyte PKA activity” value with PKA is recorded as “activated”.
Turning to `C=C[C@@]1(C)CC(=O)[C@]2(O)[C@@]3(C)[C@@H](O)CCC(C)(C)[C@@H]3[C@H](O)[C@H](OC(C)=O)[C@@]2(C)O1` [forskolin, reference compound], the “increase of intracellular cAMP levels” value in assay [3] is reported as “about 4 fold”.
As for “MCP-1: recombinant mouse CC-chemokine, purchased from BD-PharMingen”, the “expression of TNF-α, RANTES, KC, MIP-1α, MIP-2, and MCP-1 transcripts” value (“expression of TNF-α, RANTES, KC, MIP-1α” for short) in assay [2] is reported as “no effect”. In assay [4], the “modulation of expression of any of the receptor transcripts examined” value is given as “did not significantly modulate”.
For “PKI: protein kinase A inhibitor 14-22 amide (SGRTGRRNA-NH2; UniProt P61925 14-22, looked up, fragment) [reference compound]”, the “expression of transcripts for MIP-1α” value in assay [2] is listed as “induced”.
With SDF-1α, the “expression of TNF-α, RANTES, KC, MIP-1α” value in assay [2] is reported as “no effect”.
As to TNF-α, in assay [4], the “CX3CR1 and CXCR4 expression” value was “reduced”; the “change in CCR5 transcripts” value is “little or no change”; the “increase of CCR1 transcripts” value was 55%.

B1: MIP-1β: recombinant mouse CC-chemokine, purchased from R&D System (protein, UniProt P14097 24-92, looked up)
C-C motif chemokine 4: APMGSDPPTSCCFSYTSRQLHRSFVMDYYETSSLCSKPAVVFLTKRGRQICANPSEPWVTEYMSDLELN
For B1, in assay [2], the “expression of TNF-α, RANTES, KC, MIP-1α” value is recorded as “up-regulated”.

B2: MIP-1α: recombinant mouse CC-chemokine, purchased from R&D System (protein, UniProt P10855 24-92, looked up)
C-C motif chemokine 3: APYGADTPTACCFSYSRKIPRQFIVDYFETSSLCSQPGVIFLTKRNRQICADSKETWVQEYITDLELNA
In the case of B2, the “expression of TNF-α, RANTES, KC, MIP-1α” value in assay [2] is “up-regulated”.

B3: IL-1: recombinant murine IL-1β, purchased from Invitrogen (protein, UniProt P10749 118-269, looked up)
Interleukin-1 beta: VPIRQLHYRLRDEQQKSLVLSDPYELKALHLNGQNINQQVIFSMSFVQGEPSNDKIPVALGLKGKNLYLSCVMKDGTPTLQLESVDPKQYPKKKMEKRFVFNKIEVKSKVEFESAEFPNWYISTSQAEHKPVFLGNNSGQDIIDFTMESVSS
Consider B3, for which, in assay [1] (20 ng/ml IL-1β, 20 min), the “activation of the three MAP kinases (ERK1/2, SAPK/JNK, p38)” value is “activated”.
